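Results reflect a 48-hour exposure of cells in 96-well plates to compound at five concentrations. TGI: total growth inhibition.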
Key:
Experiment in all cases: NCI-60 cell line screen, 48 h
OVCAR-5 ovarian = test system: OVCAR-5 ovarian
CAKI-1 renal = test system: CAKI-1 renal
OVCAR-3 ovarian = test system: OVCAR-3 ovarian
SR leukemia = test system: SR leukemia
TK-10 renal = test system: TK-10 renal
PC-3 prostate = test system: PC-3 prostate
SK-MEL-28 melanoma = test system: SK-MEL-28 melanoma
SN12C renal = test system: SN12C renal
A549 NSCLC = test system: A549 NSCLC
HS 578T breast = test system: HS 578T breast
MDA-N = test system: MDA-N
IGROV1 ovarian = test system: IGROV1 ovarian
MCF7 breast = test system: MCF7 breast
LOX IMVI melanoma = test system: LOX IMVI melanoma
MDA-MB-435 = test system: MDA-MB-435
HCT-15 colon = test system: HCT-15 colon
786-0 renal = test system: 786-0 renal
MDA-MB-231 breast = test system: MDA-MB-231 breast
SK-MEL-5 melanoma = test system: SK-MEL-5 melanoma
SW-620 colon = test system: SW-620 colon
SK-MEL-2 melanoma = test system: SK-MEL-2 melanoma
COLO 205 colon = test system: COLO 205 colon
HCT-116 colon = test system: HCT-116 colon
U251 CNS = test system: U251 CNS
HOP-92 NSCLC = test system: HOP-92 NSCLC
UACC-257 melanoma = test system: UACC-257 melanoma
SF-295 CNS = test system: SF-295 CNS
DU-145 prostate = test system: DU-145 prostate
M14 melanoma = test system: M14 melanoma
KM12 colon = test system: KM12 colon
UACC-62 melanoma = test system: UACC-62 melanoma
SF-539 CNS = test system: SF-539 CNS
ACHN renal = test system: ACHN renal
A498 renal = test system: A498 renal
MALME-3M melanoma = test system: MALME-3M melanoma
NCI-H522 lung = test system: NCI-H522 lung
EKVX NSCLC = test system: EKVX NSCLC
SF-268 CNS = test system: SF-268 CNS
NCI-H460 lung = test system: NCI-H460 lung
HCC-2998 colon = test system: HCC-2998 colon
CCRF-CEM leukemia = test system: CCRF-CEM leukemia
SNB-75 CNS = test system: SNB-75 CNS
NCI-H23 lung = test system: NCI-H23 lung
HT29 colon = test system: HT29 colon
T-47D breast = test system: T-47D breast
HOP-62 NSCLC = test system: HOP-62 NSCLC
NCI/ADR-RES ovarian = test system: NCI/ADR-RES ovarian
SNB-19 CNS = test system: SNB-19 CNS
NCI-H226 lung = test system: NCI-H226 lung
RPMI-8226 leukemia = test system: RPMI-8226 leukemia
BT-549 breast = test system: BT-549 breast
UO-31 renal = test system: UO-31 renal
RXF 393 renal = test system: RXF 393 renal
K-562 leukemia = test system: K-562 leukemia
OVCAR-8 ovarian = test system: OVCAR-8 ovarian
MOLT-4 leukemia = test system: MOLT-4 leukemia
HL-60(TB) leukemia = test system: HL-60(TB) leukemia
OVCAR-4 ovarian = test system: OVCAR-4 ovarian
SK-OV-3 ovarian = test system: SK-OV-3 ovarian

SMILES: O=S(/C=C/C=C/S(=O)(=O)c1ccccc1)c1ccccc1 (stereo not drawn)
- TGI (OVCAR-5 ovarian): > 10 µM
- TGI (CAKI-1 renal): 3.43 µM
- TGI (OVCAR-3 ovarian): 3.44 µM
- TGI (SR leukemia): 3.07 µM
- TGI (TK-10 renal): 6.08 µM
- TGI (PC-3 prostate): > 10 µM
- TGI (SK-MEL-28 melanoma): 4.35 µM
- TGI (SN12C renal): 3.94 µM
- TGI (A549 NSCLC): > 10 µM
- TGI (HS 578T breast): > 10 µM
- TGI (MDA-N): > 5.51 µM
- TGI (IGROV1 ovarian): > 10 µM
- TGI (MCF7 breast): 3.17 µM
- TGI (LOX IMVI melanoma): > 3.89 µM
- TGI (MDA-MB-435): 5.96 µM
- TGI (HCT-15 colon): 3.97 µM
- TGI (786-0 renal): 1.61 µM
- TGI (MDA-MB-231 breast): 8.8 µM
- TGI (SK-MEL-5 melanoma): 3.91 µM
- TGI (SW-620 colon): 2.67 µM
- TGI (SK-MEL-2 melanoma): 4.2 µM
- TGI (COLO 205 colon): 3.48 µM
- TGI (HCT-116 colon): 2.84 µM
- TGI (U251 CNS): > 10 µM
- TGI (HOP-92 NSCLC): 4.87 µM
- TGI (UACC-257 melanoma): 3.77 µM
- TGI (SF-295 CNS): > 10 µM
- TGI (DU-145 prostate): > 7 µM
- TGI (M14 melanoma): 1.56 µM
- TGI (KM12 colon): > 4.88 µM
- TGI (UACC-62 melanoma): > 7.77 µM
- TGI (SF-539 CNS): > 10 µM
- TGI (ACHN renal): > 9.31 µM
- TGI (A498 renal): > 10 µM
- TGI (MALME-3M melanoma): 4.22 µM
- TGI (NCI-H522 lung): 3.17 µM
- TGI (EKVX NSCLC): > 10 µM
- TGI (SF-268 CNS): > 9.08 µM
- TGI (NCI-H460 lung): > 10 µM
- TGI (HCC-2998 colon): > 10 µM
- TGI (CCRF-CEM leukemia): 2.27 µM
- TGI (SNB-75 CNS): > 10 µM
- TGI (NCI-H23 lung): 4.39 µM
- TGI (HT29 colon): > 10 µM
- TGI (T-47D breast): > 4.97 µM
- TGI (HOP-62 NSCLC): > 10 µM
- TGI (NCI/ADR-RES ovarian): 5.02 µM
- TGI (SNB-19 CNS): > 10 µM
- TGI (NCI-H226 lung): > 10 µM
- TGI (RPMI-8226 leukemia): 3.06 µM
- TGI (BT-549 breast): > 10 µM
- TGI (UO-31 renal): 5.64 µM
- TGI (RXF 393 renal): 3.31 µM
- TGI (K-562 leukemia): 2.83 µM
- TGI (OVCAR-8 ovarian): 3.7 µM
- TGI (MOLT-4 leukemia): 4.11 µM
- TGI (HL-60(TB) leukemia): 0.909 µM
- TGI (OVCAR-4 ovarian): 4.33 µM
- TGI (SK-OV-3 ovarian): > 10 µM

SMILES: CC(C)CSCC1OC(n2cnc3c(N)nccc32)C(O)C1O (stereo not drawn)
- TGI (OVCAR-5 ovarian): > 100 µM
- TGI (CAKI-1 renal): > 100 µM
- TGI (OVCAR-3 ovarian): > 100 µM
- TGI (SR leukemia): > 100 µM
- TGI (TK-10 renal): > 100 µM
- TGI (PC-3 prostate): > 100 µM
- TGI (SK-MEL-28 melanoma): > 100 µM
- TGI (SN12C renal): > 100 µM
- TGI (A549 NSCLC): > 100 µM
- TGI (HS 578T breast): > 100 µM
- TGI (MDA-N): > 100 µM
- TGI (IGROV1 ovarian): > 100 µM
- TGI (MCF7 breast): > 100 µM
- TGI (LOX IMVI melanoma): > 100 µM
- TGI (MDA-MB-435): > 100 µM
- TGI (HCT-15 colon): > 100 µM
- TGI (786-0 renal): > 100 µM
- TGI (MDA-MB-231 breast): > 100 µM
- TGI (SK-MEL-5 melanoma): > 100 µM
- TGI (SW-620 colon): > 100 µM
- TGI (SK-MEL-2 melanoma): > 100 µM
- TGI (COLO 205 colon): > 100 µM
- TGI (HCT-116 colon): > 100 µM
- TGI (U251 CNS): > 100 µM
- TGI (HOP-92 NSCLC): > 100 µM
- TGI (UACC-257 melanoma): > 100 µM
- TGI (SF-295 CNS): > 100 µM
- TGI (DU-145 prostate): > 100 µM
- TGI (M14 melanoma): > 100 µM
- TGI (KM12 colon): > 100 µM
- TGI (UACC-62 melanoma): > 100 µM
- TGI (SF-539 CNS): > 100 µM
- TGI (ACHN renal): > 100 µM
- TGI (A498 renal): > 100 µM
- TGI (MALME-3M melanoma): > 100 µM
- TGI (NCI-H522 lung): > 100 µM
- TGI (EKVX NSCLC): > 100 µM
- TGI (SF-268 CNS): > 100 µM
- TGI (NCI-H460 lung): > 100 µM
- TGI (HCC-2998 colon): > 100 µM
- TGI (CCRF-CEM leukemia): > 100 µM
- TGI (SNB-75 CNS): > 100 µM
- TGI (NCI-H23 lung): > 100 µM
- TGI (HT29 colon): > 100 µM
- TGI (T-47D breast): > 100 µM
- TGI (HOP-62 NSCLC): > 100 µM
- TGI (NCI/ADR-RES ovarian): > 100 µM
- TGI (SNB-19 CNS): > 100 µM
- TGI (NCI-H226 lung): > 100 µM
- TGI (RPMI-8226 leukemia): > 100 µM
- TGI (BT-549 breast): > 100 µM
- TGI (UO-31 renal): > 100 µM
- TGI (RXF 393 renal): > 100 µM
- TGI (K-562 leukemia): > 100 µM
- TGI (OVCAR-8 ovarian): > 100 µM
- TGI (MOLT-4 leukemia): > 100 µM
- TGI (HL-60(TB) leukemia): > 100 µM
- TGI (OVCAR-4 ovarian): > 100 µM
- TGI (SK-OV-3 ovarian): > 100 µM
